# Assay results published in patent US20130029391A1, “METHOD OF PREPARING KODA USING LEMNA PAUCICOSTATA” (priority 2010, published 2013).
# B1: Arabidopsis thaliana allene oxide synthase AtAOS (Arabidopsis thaliana) (protein)
# chain: SGSETPDLTVATRTGSKDLPIRNIPGNYGLPIVGPIKDRWDYFYDQGAEEFFKSRIRKYNSTVYRVNMPPGAFIAENPQVVALLDGKSFPVLFDVDKVEKKDLFTGTYMPSTELTGGYRILSYLDPSEPKHEKLKNLLFFLLKSSRNRIFPEFQATYSELFDSLEKELSLKGKADFGGSSDGTAFNFLARAFYGTNPADTKLKADAPGLITKWVLFNLHPLLSIGLPRVIEEPLIHTFSLPPALVKSDYQRLYEFFLESAGEILVEADKLGISREEATHNLLFATCFNTWGGMKILFPNMVKRIGRAGHQVHNRLAEEIRSVIKSNGGELTMGAIEKMELTKSVVYECLRFEPPVTAQYGRAKKDLVIESHDAAFKVKAGEMLYGYQPLATRDPKIFDRADEFVPERFVGEEGEKLLRHVLWSNGPETETPTVGNKQCAGKDFVVLVARLFVIEIFRRYDSFDIEVGTSPLGSSVNFSSLRKASF
# B2: SHLpLOX: position 9-product specific lipoxygenase derived from Lemna paucicostata SH strain (SEQ ID NO: 3), expressed in Escherichia coli (protein, listed as Lemna paucicostata)
# chain: MAGFLQKVTDNLLHKAAKISGTVVLVKSNVVGFNDFADSFLDGLHELLGSGITFQLVSATVGDPKNGNKGKLGKPALLEKWITTGTFLAAGDSGFKVNFEWDEQLGVPGAVIVKNNHHGEFFLKSLTLDGAPGPRSRIHFDCNSWVYPYSTYNYDRVFFANDTYLPGEMPEPLKAYRAAELVNLRGDGVTRELKEGDRIYAYDLYNDLGDPDSGKELARPILGGSEEYPYPRRARTGRKLTKTDPKSEQRLPLVFSLNVYVPRDERFGHLKMSDFLAYSLKALAQGLVPALDAATDITPFEFDTFQDVLNLYEGGINLPTTPALENFKKQIPFPLVKELFRSDGENLFRLPTPSVIKADKFAWRTDEEFGREMLAGVNPVCIRLLKKFPPVSSLDPSIYRNQNSTMIADQLEKNMNGLSVEEALKQKKLFILDHHDSLMPYLERINTFNKIYASRTVLLLQDDGTLKPLAIELSLPVKGEKGAVSKVYTPAEHGVEGAVWQLAKAYVAVNDSGVHQLISHWLNTHATIEPFSIALNRQLSVVHPIYKLLHPHFRDTMNINAFARQILINAGGILEMTVFPGKYAMEMSSVVYKGWKLTDQALPVDLLNRGVAEKDPSSGELRLLIEDYPYAVDGLDVWNAIEEWVKEYCAIYYPSDKTLQDDTEVQAWWKEVREVGHGDKKDETWWPAMETVAELTQTCSTIIWVASALHAAVNFAQYPYAGYLPNRPTISRRFMPEPGTPEYEELETDPDRAFLKTITSQLQTLIGVSLIEILSRHSSDEIYLGQRVSAEWTSDAKALAAFKAFGEKLITIENKIIEMNVDSSLKNRNGPVKVPYTFLYPNTTDYTRVGGLTGRGIPNSISI
# B3: SHLpAOS: allene oxide synthase derived from Lemna paucicostata SH strain (SEQ ID NO: 4), expressed in Escherichia coli; printed as LpLOX-SH in Table 2 (protein, listed as Lemna paucicostata)
# chain: MSVSQSDDKAALVPQKTIPGSYGIPFITPLKDRLDFFSNEYQFFQSRVESYGSTIVRLNAPPGPFMAKNPQVIAILDGKSFPVLFDTSKVEKKNIFTGTYMPSTALTGGYRVCAYLDPSEPNHTKIKQLLLNILFNRKDHVIPEFHRAYEKLFDDMDAEIAKSGKFVFNDHNDGAAFEFLGRLFFGVSPSETELGAGGVKDANLWLFSQLCPLMTLGFLPKLLEDLLLHTFPLPPFLFKGKYQAIYKYISSVATDALTMAENLGLSREEAAHNLLFAVCFNSLGGVKVLFPGILRYIAQAGKNLQASLVSEVRSAVSSTGGELTIEALEKMPLTKSVVYESLRLDPPVKYQYGVVKKDMVIESHDRSYEVKAGETLFGYQPFATRDKKIFGPDADNFVAERFIGEEGAKVLRFVVWSNGPETTDPTPVDKQCPGKNLVVLISRLLVAEFFLRYDFFDAEIGAVPLAVKTTITSLTKATTR
# What was measured:
# [1] = test system: Lemna paucicostata SH strain allene oxide synthase SHLpAOS, SEQ ID NO: 4; test: kinetic analysis of SHLpAOS with 9-HPOT (A234 decrease, Hanes-Woolf plot); format: biochemical
# Description: (§1) SHLpAOS obtained from Lemna paucicostata SH strain was subjected to kinetic analysis. […] The substrate 9-HPOT was tested at the substrate concentration of 5-53 μM. The substrate 9-HPOT was added as an EtOH solution, and the final concentration of EtOH was adjusted to 1%. 100 μl of the reaction mixture was added into a cuvette, and a decrease in absorbance at 234 nm was scanned over time for 1 minute at an interval of 2 seconds using the SmartSpec Plus Spectrophotometer (Bio-Rad). From the A234 determined, the amount of the reaction product was calculated (e=25,000). […] It is believed that compared to AtAOS, SHLpAOS is a very useful AOS in the practical production of KODA.
# [2] = test system: Lemna paucicostata SH strain position 9-product specific lipoxygenase SHLpLOX (LpLOX-SH), SEQ ID NO: 3; details: 40 mM phosphate buffer (pH 6.0), 0.1% Tween 80, 25° C; substrate 10-100 μM
# Description: The sequence of SHLpLOSX obtained was introduced into a vector (pET23d, Novagen) for protein expression, and then transformed into Escherichia coli (BL21(DE3), Novagen), so as to allow the expression of SHLpLOX protein. Using this SHLpLOX protein, the activity test in KODA production was carried out. […] Using a reaction mixture comprising 40 mM phosphate buffer (pH 6.0) and 0.1% Tween 80, the analysis was carried out at a temperature of 25° C. […] The amount of the reaction product was calculated from the […] determined (e=25,000). Kinetic parameters were determined using the Hanes-Woolf plot ([S]/v versus [S] plot).
# [3] = target: rice germ position 9-specific lipoxygenase r9-LOX1 (Oryza sativa, UniProt Q76I22); details: 40 mM phosphate buffer (pH 6.0), 0.1% Tween 80, 25° C; substrate 10-100 μM
# Description: Using a reaction mixture comprising 40 mM phosphate buffer (pH 6.0) and 0.1% Tween 80, the analysis was carried out at a temperature of 25° C. […] The amount of the reaction product was calculated from the [MUT] determined (e=25,000). Kinetic parameters were determined using the Hanes-Woolf plot ([S]/v versus [S] plot).
# [4] = substrate: CC/C=C\C/C=C\C=C\[C@H](CCCCCCCC(=O)O)OO; test: kinetic analysis of AtAOS with 9-HPOT (A234 decrease, Hanes-Woolf plot); format: biochemical, Arabidopsis thaliana; details: other: 40 mM phosphate buffer (pH 7.5), 1% EtOH, 25° C, substrate 5-53 μM
# Description: (§2) To 20 μl of this 9-HPOT reaction mixture, 0.32 ng of the SHLpAOS protein or A. thaliana-derived AOS (AtAOS) protein was added and reacted at room temperature for 10 minutes. After the reaction was over, the reaction was terminated by a heat treatment at 50° C. for 3 minutes. 10 μl of this solution was analyzed by HPLC. HPLC analysis was carried out with a column: Capcell pak C-18 UG120 (4.6×250 mm), and using mobile phase: 50% acetonitrile solution (0.02% TFA), flow rate: 1 ml/min, detection wavelength: 210 nm.
# as §1
# [5] = Activity test in KODA production: HPLC of linolenic acid hydroperoxide formed by LOX; format: biochemical; details: 5 mM linolenic acid solution, pH 7, room temperature, 30 minutes; FIG. 4
# Description: HPLC analysis was carried out with a column: Capcell pak C-18 UG120 (4.6×250 mm, Shiseido), by using column temperature: 40° C., mobile phase: 50% acetonitrile solution (0.02% TFA), flow rate: 1 ml/min, detection wavelength: 210 nm.
# [6] = Kinetic analysis of 9-LOX, absorbance at 234 nm, Hanes-Woolf plot; format: biochemical; details: SHLpLOX versus r9-LOX1
# Description: The substrate α-linolenic acid was tested at the substrate concentration of 10-100 μM. 100 μl of the reaction mixture was added into a cuvette, and absorbance at 234 nm was scanned over time for 10 minutes at an interval of 15 seconds using the SmartSpec Plus Spectrophotometer (Bio-Rad).
# [7] = Activity test in KODA production: AOS reacted with 9-HPOT reaction mixture, HPLC; format: biochemical; details: 0.32 ng protein, 20 μl 9-HPOT reaction mixture, room temperature, 10 minutes; FIG. 5
# Description: as §2
# [8] = Kinetic analysis of AOS, decrease in absorbance at 234 nm, Hanes-Woolf plot; format: biochemical; details: SHLpAOS versus AtAOS
# Description: as §1
# [9] = 40 mM phosphate buffer (pH 7.5), 1% EtOH, 25° C, substrate 5-53 μM
# [10] = higher in SHLpAOS than in AtAOS
# Sequence of rice germ position 9-specific lipoxygenase r9-LOX1 (Q76I22 whole entry): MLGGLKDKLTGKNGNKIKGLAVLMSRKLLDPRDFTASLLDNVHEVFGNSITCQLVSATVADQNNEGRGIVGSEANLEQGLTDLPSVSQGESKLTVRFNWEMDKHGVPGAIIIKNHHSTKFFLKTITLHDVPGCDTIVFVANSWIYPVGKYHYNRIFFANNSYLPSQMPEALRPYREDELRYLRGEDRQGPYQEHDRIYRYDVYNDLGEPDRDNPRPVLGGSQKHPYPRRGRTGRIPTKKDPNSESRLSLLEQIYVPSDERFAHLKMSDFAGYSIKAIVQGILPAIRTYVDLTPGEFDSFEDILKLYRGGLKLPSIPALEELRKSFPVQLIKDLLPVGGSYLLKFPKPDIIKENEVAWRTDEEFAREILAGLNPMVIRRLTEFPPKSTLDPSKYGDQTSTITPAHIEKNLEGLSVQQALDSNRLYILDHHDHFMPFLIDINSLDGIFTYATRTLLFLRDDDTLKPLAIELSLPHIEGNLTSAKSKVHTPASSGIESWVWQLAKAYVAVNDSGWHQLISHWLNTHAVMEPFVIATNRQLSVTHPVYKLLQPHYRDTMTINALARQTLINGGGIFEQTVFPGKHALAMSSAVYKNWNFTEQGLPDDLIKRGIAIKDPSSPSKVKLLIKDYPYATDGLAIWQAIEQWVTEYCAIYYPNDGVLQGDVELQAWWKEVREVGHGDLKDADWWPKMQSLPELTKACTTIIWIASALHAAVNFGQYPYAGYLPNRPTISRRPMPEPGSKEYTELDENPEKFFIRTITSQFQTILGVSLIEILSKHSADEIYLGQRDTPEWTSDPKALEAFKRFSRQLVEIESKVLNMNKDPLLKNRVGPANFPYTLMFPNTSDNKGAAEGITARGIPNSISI
molecule,measurement,setting,value
"CC/C=C\C/C=C\C=C\[C@H](CCCCCCCC(=O)O)OO [9-HPOT, 9-hydroperoxylinolenic acid]",Km,[1]; [9],7.1 ± 1.9 µM
same,Vmax,[1]; [9],4.7 ± 0.3 µmol/s
same,kcat,[1]; [9],709.2 ± 44.3 s⁻¹
same,"Kcat, SHLpAOS relative to AtAOS",[1]; [10],about 2.8 fold
same,"Vmax, SHLpAOS relative to AtAOS",[1]; [10],about 2.8 fold
"CC/C=C\C/C=C\C/C=C\CCCCCCCC(=O)O [α-linolenic acid, cis-9,12,15-octadecatrienoic acid]",Km,[2],19.2 ± 4.1 µM
same,Vmax,[2],3.0 ± 0.1 µmol/min
same,kcat,[2],12.8 ± 0.538 s⁻¹
same,Km,[3],22.9 ± 1.6 µM
same,Vmax,[3],2.8 ± 0.6 µmol/min
same,kcat,[3],10.24 ± 2.077 s⁻¹
B1,Km,[4],36.3 ± 1.3 µM
same,Vmax,[4],102 µmol/min
same,kcat,[4],256 ± 4.8 s⁻¹
same,kcat/Km,[4],7e+06 ± 3.8e+06 M⁻¹ s⁻¹
B2,LOX activity (linolenic acid hydroperoxide formed) compared with r9-LOX1,[5],much higher activity than r9-LOX1
same,kcat/Km value relative to r9-LOX1,[6],about 1.6 fold
B3,AOS activity relative to AtAOS protein,[7],~7 fold
same,affinity for 9-HPOT (Km) relative to AtAOS,[8],about 5 fold
same,kcat/Km value relative to AtAOS,[8],about 14 fold
